Laboratory results as given in article PMC9170034 (Proceedings of the National Academy of Sciences of the …, 2022).
“And” between values parts separate entries of the source, which are not always exact repeats. Equal entries are not always repeated.

Key:
[1] = target: T1, OXA-10 (Pseudomonas aeruginosa, UniProt P14489); assay: SPE-MS study of prolonged reaction of SBL with penam sulfones; conditions: 500 equiv.
T1 construct: His tag (N); made in house

[2] = target: T1, OXA-10; assay: IC50/pIC50 determination with fluorescent reporter substrate FC-5 after pre-incubation; type: biochemical
Experimental: Kinetic analyses were performed (at least in triplicate) using either BMG LABTECH PHERAstar or CLARIOstar plate readers. Unless stated otherwise, reactions were in 50 mM phosphate buffer, pH 7.5, containing 0.01% (vol/vol) aqueous Triton X-100, and, in the case of OXA-10, 10 mM sodium bicarbonate. […] Nonlinear regression analysis was performed with Prism 5 (GraphPad Software).
IC50s were determined as reported ([35]). […] The apparent inhibitory constant Kiapp and the second-order rate constant kinact/K (or k2/K) were determined using reported methods ([60]). SBLs were reacted with the reporter substrate in the presence of varied inhibitor concentrations. Reactions were initiated by SBL addition and immediately monitored for 60 to 120 s (until they plateaued). […] P=Vst+(V0−VS)(1−e^−kobst)/kobs+P0.

[3] = target: T2, AmpCEC (Escherichia coli, UniProt P00811); assay: biochemical
T2 construct: made in house
Experimental: (§1) Kinetic analyses were performed (at least in triplicate) using either BMG LABTECH PHERAstar or CLARIOstar plate readers. Unless stated otherwise, reactions were in 50 mM phosphate buffer, pH 7.5, containing 0.01% (vol/vol) aqueous Triton X-100, and, in the case of OXA-10, 10 mM sodium bicarbonate. Assays were performed in competition with either the fluorescent reporter substrate FC-5 ([35]), using black-walled microplates (Greiner Bio-One μCLEAR, PS, F-bottom, black), and measuring fluorescence intensity (ʎex = 380 nm and ʎem = 460 nm), or with nitrocefin (NCF), using ultraviolet transparent plates (Greiner Bio-One UV-Star, COC, F-bottom, clear) and measuring absorbance (ʎAbs = 486 nm, using path-length correction). Nonlinear regression analysis was performed with Prism 5 (GraphPad Software).
(§2) IC50s were determined as reported ([35]). TEM-116 (1 nM), AmpCEC (500 pM), or OXA-10 (250 pM) were incubated with varied inhibitor concentrations at room temperature (r.t.) for the indicated time then assayed using 5 µM FC-5. The apparent inhibitory constant Kiapp and the second-order rate constant kinact/K (or k2/K) were determined using reported methods ([60]). SBLs were reacted with the reporter substrate in the presence of varied inhibitor concentrations. Reactions were initiated by SBL addition and immediately monitored for 60 to 120 s (until they plateaued). […]

[4] = target: T1, OXA-10; assay: Kiapp and kinact/K determination in competition with FC-5; type: biochemical
Experimental: as §1, §2

[5] = target: T3, AmpC from Escherichia coli (AmpCEC) (Escherichia coli, UniProt P00811); assay: IC50/pIC50 determination with fluorescent reporter substrate FC-5 after pre-incubation; type: biochemical
T3 construct: made in house
Experimental: as §1
IC50s were determined as reported ([35]). TEM-116 (1 nM), AmpCEC (500 pM), or OXA-10 (250 pM) were incubated with varied inhibitor concentrations at room temperature (r.t.) for the indicated time then assayed using 5 µM FC-5. The apparent inhibitory constant Kiapp and the second-order rate constant kinact/K (or k2/K) were determined using reported methods ([60]). SBLs were reacted with the reporter substrate in the presence of varied inhibitor concentrations. Reactions were initiated by SBL addition and immediately monitored for 60 to 120 s (until they plateaued). For TEM-116 (1 nM) assays were carried out in competition with NCF (50 µM); for AmpCEC (100 nM) and OXA-10 (50 nM) FC-5 (5 µM) was used. […] P=Vst+(V0−VS)(1−e^−kobst)/kobs+P0.

T1 sequence (P14489 20-266): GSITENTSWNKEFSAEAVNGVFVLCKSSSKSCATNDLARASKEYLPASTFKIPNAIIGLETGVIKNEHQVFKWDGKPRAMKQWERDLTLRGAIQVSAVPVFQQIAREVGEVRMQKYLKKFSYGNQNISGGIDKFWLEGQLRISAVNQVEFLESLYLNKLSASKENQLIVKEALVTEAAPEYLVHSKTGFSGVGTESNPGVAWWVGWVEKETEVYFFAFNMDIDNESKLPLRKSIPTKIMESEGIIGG
T3 sequence (P00811 20-377): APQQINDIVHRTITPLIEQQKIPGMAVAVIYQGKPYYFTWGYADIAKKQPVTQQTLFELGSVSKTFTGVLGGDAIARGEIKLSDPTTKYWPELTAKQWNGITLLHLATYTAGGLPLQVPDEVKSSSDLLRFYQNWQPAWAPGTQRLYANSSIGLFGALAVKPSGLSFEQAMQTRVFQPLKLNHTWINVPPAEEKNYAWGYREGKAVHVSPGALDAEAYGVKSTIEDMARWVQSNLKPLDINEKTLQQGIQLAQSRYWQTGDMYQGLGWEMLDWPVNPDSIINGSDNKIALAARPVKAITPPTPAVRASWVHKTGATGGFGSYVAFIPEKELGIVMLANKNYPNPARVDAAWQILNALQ
T2 sequence (P00811 20-377): as above

SMILES: CC1(C)[C@H](C(=O)O)N2C(=O)C[C@H]2S1(=O)=O [sulbactam]
- −18-Da modification, OXA-10 [1]: Small amounts
- IC50 ([2]; IC50, OXA-10, 10 min pre-incubation, r.t., pH 7.5, FC-5 (5 μM), 100 mM NaHCO3 added): 143 µM and 142 µM
- IC50 ([2]; pIC50 at pH 7.5, OXA-10, with 100 mM added NaHCO3, 0 min pre-incubation, Table S1): 218.8 ± 0.598 µM
- IC50 ([2]; pIC50 at pH 7.5, OXA-10, with 100 mM added NaHCO3, 30 min pre-incubation, Table S1): 263 µM
- IC50 ([2]; pIC50 at pH 7.5, OXA-10, with 100 mM added NaHCO3, 60 min pre-incubation, Table S1): 112 µM
- IC50 ([2]; pIC50 at pH 7.5, OXA-10, with 100 mM added NaHCO3, 360 min pre-incubation, Table S1): 204 µM
- IC50 ([2]; pIC50 at pH 7.5, OXA-10, without added NaHCO3, 0 min pre-incubation, Table S1): 204 µM
- IC50 ([2]; pIC50 at pH 7.5, OXA-10, without added NaHCO3, 10 min pre-incubation, Table S1): 87.1 µM
- IC50 ([2]; pIC50 at pH 7.5, OXA-10, without added NaHCO3, 30 min pre-incubation, Table S1): 89.1 µM
- IC50 ([2]; pIC50 at pH 7.5, OXA-10, without added NaHCO3, 60 min pre-incubation, Table S1): 75.9 µM
- IC50 ([2]; pIC50 at pH 7.5, OXA-10, without added NaHCO3, 360 min pre-incubation, Table S1): 50.1 µM
- Ki [3]: 1580 ± 189 µM
- Ki [4]: 4920 ± 873 µM
- IC50 ([5]; IC50, AmpC E. coli, 10 min pre-incubation, r.t., pH 7.5, FC-5 (5 μM)): 89 µM and 89.2 µM
- IC50 ([5]; pIC50, AmpCEC, pH 7.0, pH 7.0, 0 min pre-incubation, Table S2): 447 µM
- IC50 ([5]; pIC50, AmpCEC, pH 7.0, pH 7.0, 10 min pre-incubation, Table S2): 162 µM
- IC50 ([5]; pIC50, AmpCEC, pH 7.0, pH 7.0, 30 min pre-incubation, Table S2): 69.2 µM
- IC50 ([5]; pIC50, AmpCEC, pH 7.0, pH 7.0, 60 min pre-incubation, Table S2): 45.7 µM
- IC50 ([5]; pIC50, AmpCEC, pH 7.0, pH 7.0, 360 min pre-incubation, Table S2): 11.5 µM
- IC50 ([5]; pIC50, AmpCEC, pH 7.5, pH 7.5, 0 min pre-incubation, Table S2): 275 µM
- IC50 ([5]; pIC50, AmpCEC, pH 7.5, pH 7.5, 30 min pre-incubation, Table S2): 36.3 µM
- IC50 ([5]; pIC50, AmpCEC, pH 7.5, pH 7.5, 60 min pre-incubation, Table S2): 20 µM
- IC50 ([5]; pIC50, AmpCEC, pH 7.5, pH 7.5, 360 min pre-incubation, Table S2): 4.17 µM
- IC50 ([5]; pIC50, AmpCEC, pH 8.0, pH 8.0, 0 min pre-incubation, Table S2): 97.7 µM
- IC50 ([5]; pIC50, AmpCEC, pH 8.0, pH 8.0, 10 min pre-incubation, Table S2): 37.2 µM
- IC50 ([5]; pIC50, AmpCEC, pH 8.0, pH 8.0, 60 min pre-incubation, Table S2): 9.77 µM
- IC50 ([5]; pIC50, AmpCEC, pH 8.0, pH 8.0, 360 min pre-incubation, Table S2): 1.7 µM
- IC50 ([5]; pIC50 at pH 7.5, AmpCEC, 0 min pre-incubation, Table S1): 275 µM
- IC50 ([5]; pIC50 at pH 7.5, AmpCEC, 30 min pre-incubation, Table S1): 36.3 µM
- IC50 ([5]; pIC50 at pH 7.5, AmpCEC, 60 min pre-incubation, Table S1): 20 µM
- IC50 ([5]; pIC50 at pH 7.5, AmpCEC, 360 min pre-incubation, Table S1): 4.17 µM
